From ChEMBL document CHEMBL1201862, “PubChem BioAssay data set” (2004)
Activity calls are given as the source filed them.

How the values were obtained:
[1] = inhibitors of intracellular T. cruzi replication, confirmation, NIH3T3 host cells, beta-gal luminescence (AID 2044); type: functional, cell-based;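 further: intracellular parasites grown in NIH/3T3 mouse fibroblasts as host cells; luminescent beta-galactosidase reporter signal from transgenic T. cruzi replicating inside host cells; inhibitors lower the luminescence signal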
[2] = microbe, parasite or virus in culture; type: functional; settings: Mycobacterium tuberculosis
[3] = cytotoxicity toward NIH3T3 fibroblasts, dose response, counter-screen, cell-based, ATP luminescence, mouse fibroblasts (AID 2010); type: functional;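 further: cells exposed to compound for about 90 hours before reading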
[4] = THP-1 cell cytotoxicity, dose response, cytotoxicity control for non-replicating M. tuberculosis project (AID 489025); type: functional
[5] = HepG2 cell cytotoxicity, dose response, cytotoxicity control for non-replicating M. tuberculosis project (AID 489018); type: functional; settings: Mycobacterium tuberculosis
[6] = Vero E6 cell cytotoxicity, dose response, cytotoxicity control for non-replicating M. tuberculosis project, secondary assay (AID 492998); type: functional, VeroE6; settings: Vero C1008
[7] = target: Dual specificity protein phosphatase 3 (Homo sapiens, UniProt P51452); test: SAR VHR1 Fluorescent Assay for In Vitro dose response studies Set 3. [Related pubchem assays (depositor defined):AID1654, AID1661, AID1878]; type: functional
Chain of Dual specificity protein phosphatase 3 (P51452 whole entry): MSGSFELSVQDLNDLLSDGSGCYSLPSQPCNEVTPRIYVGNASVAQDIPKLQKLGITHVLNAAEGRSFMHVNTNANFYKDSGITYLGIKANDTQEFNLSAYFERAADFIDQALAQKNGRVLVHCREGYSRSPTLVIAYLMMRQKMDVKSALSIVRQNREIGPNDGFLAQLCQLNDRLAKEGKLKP

[8] = target: T1, Microphthalmia-associated transcription factor (Homo sapiens, UniProt O75030); test: TRPM1 promoter luciferase signal decrease, dose response, MITF inhibitor project, cell-based, SK-MEL-5, cherry-picked, set 3 (AID 493073); type: functional
T1 sequence (O75030 whole entry): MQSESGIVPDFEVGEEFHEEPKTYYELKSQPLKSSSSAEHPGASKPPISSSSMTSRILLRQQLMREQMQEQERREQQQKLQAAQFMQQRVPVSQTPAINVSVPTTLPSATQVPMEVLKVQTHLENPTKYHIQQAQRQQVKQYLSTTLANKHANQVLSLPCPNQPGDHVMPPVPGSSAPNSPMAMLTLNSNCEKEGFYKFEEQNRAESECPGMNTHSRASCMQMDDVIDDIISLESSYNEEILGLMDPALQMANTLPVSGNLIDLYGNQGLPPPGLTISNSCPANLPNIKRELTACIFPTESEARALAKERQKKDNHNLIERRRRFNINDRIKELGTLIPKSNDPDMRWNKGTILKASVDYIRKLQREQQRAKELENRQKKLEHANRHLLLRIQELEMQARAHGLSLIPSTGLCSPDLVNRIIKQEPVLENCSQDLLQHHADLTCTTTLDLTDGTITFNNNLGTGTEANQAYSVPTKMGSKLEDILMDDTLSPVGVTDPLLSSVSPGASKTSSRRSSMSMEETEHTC

[9] = system: A-375; test: MITF: Counter assay: A375 proliferation Measured in Cell-Based System Using Plate Reader - 2084-03_Inhibitor_Dose_DryPowder_Activity. [Related pubchem assays (depositor defined):AID488944]; type: functional; settings: Homo sapiens
[10] = A549 cell cytotoxicity, dose response, cytotoxicity control, plate reader, cherry-pick, antagonist series (AID 743412); type: functional, cell-based
[11] = HepG2 cell cytotoxicity, dose response, cytotoxicity control, plate reader, cherry-pick, antagonist series (AID 743416); type: functional, cell-based
[12] = LGR2 antagonists, dose response, cell-based, HEK293, CRE-luciferase reporter, cherry pick, set 2 (AID 743343); type: functional;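 further: transfected cells were stimulated with diluted bursicon conditioned medium after compound addition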
[13] = MC4R antagonists, dose response, counter-screen for LGR2 antagonist project, cell-based, plate reader, cherry pick (AID 743444); type: functional;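 further: transfected HEK 293 cells stimulated with alpha-MSH peptide; potency of inhibitors of the alpha-MSH evoked signal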
[14] = HEK293 cell cytotoxicity, dose response, cytotoxicity control, plate reader, cherry-picked samples (AID 743446); type: functional, cell-based
[15] = system: Streptococcus sp. 'group A'; test: growth inhibition of control SK(-) GAS strain, dose response, counter-screen for streptokinase expression inhibitor project, luminescence, kanamycin, BacTiterGlo, confirmation (AID 1900); type: functional, organism-based
[16] = target: T2, Streptokinase A (Streptococcus pyogenes serotype M1, UniProt P10520); test: S. pyogenes streptokinase expression inhibitors, potency, dose response, plasminogen activation absorbance, OD405 (AID 1914); type: functional, Streptococcus pyogenes M1 GAS;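 further: secreted streptokinase activity via plasminogen activation per viability signal from cell pellet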
T2 sequence (P10520 whole entry): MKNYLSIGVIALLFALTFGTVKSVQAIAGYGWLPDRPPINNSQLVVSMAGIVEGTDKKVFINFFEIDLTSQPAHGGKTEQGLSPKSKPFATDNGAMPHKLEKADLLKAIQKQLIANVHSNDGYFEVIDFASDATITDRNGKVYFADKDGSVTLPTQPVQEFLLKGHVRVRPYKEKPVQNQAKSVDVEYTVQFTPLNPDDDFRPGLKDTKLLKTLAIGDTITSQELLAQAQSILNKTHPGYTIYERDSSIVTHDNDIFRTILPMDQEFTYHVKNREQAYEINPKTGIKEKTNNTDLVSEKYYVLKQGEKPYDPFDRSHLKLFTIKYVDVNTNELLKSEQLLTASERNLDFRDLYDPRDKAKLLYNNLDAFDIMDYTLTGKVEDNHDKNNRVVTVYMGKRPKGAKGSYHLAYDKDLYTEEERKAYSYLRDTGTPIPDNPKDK

[17] = system: Streptococcus; test: Group A Streptococcus viability loss, dose response, counter-screen for streptokinase expression inhibitor project, luminescence, BacTiterGlo (AID 1915); type: functional, organism-based;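 further: potency for reduction of bacterial viability or growth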
[18] = system: Escherichia coli; test: microbe, parasite or virus in culture
[19] = target: Cytochrome P450 2C9 (Homo sapiens, UniProt P11712)
Chain of Cytochrome P450 2C9 (P11712 whole entry): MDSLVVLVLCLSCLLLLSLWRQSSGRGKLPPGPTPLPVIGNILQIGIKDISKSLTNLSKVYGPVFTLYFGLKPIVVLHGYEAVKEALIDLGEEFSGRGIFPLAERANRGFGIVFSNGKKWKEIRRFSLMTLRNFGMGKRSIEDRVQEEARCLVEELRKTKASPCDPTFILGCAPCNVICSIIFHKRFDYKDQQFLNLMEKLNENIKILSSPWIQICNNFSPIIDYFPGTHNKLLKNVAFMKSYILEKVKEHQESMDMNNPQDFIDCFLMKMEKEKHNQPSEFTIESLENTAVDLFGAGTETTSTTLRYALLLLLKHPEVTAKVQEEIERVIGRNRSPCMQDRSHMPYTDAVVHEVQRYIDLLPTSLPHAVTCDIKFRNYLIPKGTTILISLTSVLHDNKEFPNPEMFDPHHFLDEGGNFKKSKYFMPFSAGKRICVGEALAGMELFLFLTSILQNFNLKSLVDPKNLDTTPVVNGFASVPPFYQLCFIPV

[20] = target: Cytochrome P450 2D6 (Homo sapiens, UniProt P10635);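 further: CYP2D6 member of a cytochrome P450 panel assay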
Chain of Cytochrome P450 2D6 (P10635 whole entry): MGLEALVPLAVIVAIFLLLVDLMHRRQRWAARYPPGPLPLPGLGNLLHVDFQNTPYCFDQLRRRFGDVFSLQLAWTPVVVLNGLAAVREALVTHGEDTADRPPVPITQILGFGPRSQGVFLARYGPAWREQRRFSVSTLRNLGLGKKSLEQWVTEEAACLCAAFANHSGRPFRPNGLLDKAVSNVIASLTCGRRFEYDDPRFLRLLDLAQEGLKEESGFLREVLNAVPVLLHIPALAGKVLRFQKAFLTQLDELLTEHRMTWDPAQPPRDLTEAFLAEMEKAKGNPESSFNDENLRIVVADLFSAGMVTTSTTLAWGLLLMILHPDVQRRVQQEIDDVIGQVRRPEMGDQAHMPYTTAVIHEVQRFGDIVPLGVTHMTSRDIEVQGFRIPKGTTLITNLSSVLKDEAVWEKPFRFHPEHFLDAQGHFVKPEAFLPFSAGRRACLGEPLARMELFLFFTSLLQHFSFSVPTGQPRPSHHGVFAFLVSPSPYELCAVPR

[21] = target: Cytochrome P450 3A4 (Homo sapiens, UniProt P08684);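 further: CYP3A4 tested as one member of a cytochrome P450 panel screen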
Chain of Cytochrome P450 3A4 (P08684 whole entry): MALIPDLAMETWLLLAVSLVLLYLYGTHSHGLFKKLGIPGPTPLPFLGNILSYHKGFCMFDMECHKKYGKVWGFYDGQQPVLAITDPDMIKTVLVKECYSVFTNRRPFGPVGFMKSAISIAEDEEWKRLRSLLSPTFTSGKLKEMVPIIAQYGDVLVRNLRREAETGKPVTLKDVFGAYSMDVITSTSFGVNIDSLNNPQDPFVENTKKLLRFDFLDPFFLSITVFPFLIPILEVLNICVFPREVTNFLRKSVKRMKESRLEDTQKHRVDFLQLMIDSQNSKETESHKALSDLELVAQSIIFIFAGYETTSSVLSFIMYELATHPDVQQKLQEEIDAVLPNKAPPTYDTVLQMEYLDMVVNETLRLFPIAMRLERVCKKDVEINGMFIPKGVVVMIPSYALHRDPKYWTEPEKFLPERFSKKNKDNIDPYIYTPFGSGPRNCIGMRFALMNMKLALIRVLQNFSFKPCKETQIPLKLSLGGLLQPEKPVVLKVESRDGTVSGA

[22] = target: T3, Tyrosine-protein phosphatase non-receptor type 7 (Homo sapiens, UniProt P35236); type: functional
T3 sequence (P35236 whole entry): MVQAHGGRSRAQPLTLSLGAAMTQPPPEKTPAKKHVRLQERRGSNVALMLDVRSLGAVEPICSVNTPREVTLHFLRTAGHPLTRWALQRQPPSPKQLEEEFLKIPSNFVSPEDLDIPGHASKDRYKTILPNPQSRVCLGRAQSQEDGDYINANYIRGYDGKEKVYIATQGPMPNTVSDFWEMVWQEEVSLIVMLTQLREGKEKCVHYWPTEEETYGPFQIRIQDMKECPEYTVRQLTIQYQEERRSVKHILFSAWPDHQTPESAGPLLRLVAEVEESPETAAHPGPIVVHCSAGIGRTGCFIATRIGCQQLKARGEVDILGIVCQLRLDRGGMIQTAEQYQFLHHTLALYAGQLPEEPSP

[23] = target: Glyceraldehyde-3-phosphate dehydrogenase (Homo sapiens, UniProt P04406)
Chain of Glyceraldehyde-3-phosphate dehydrogenase (P04406 whole entry): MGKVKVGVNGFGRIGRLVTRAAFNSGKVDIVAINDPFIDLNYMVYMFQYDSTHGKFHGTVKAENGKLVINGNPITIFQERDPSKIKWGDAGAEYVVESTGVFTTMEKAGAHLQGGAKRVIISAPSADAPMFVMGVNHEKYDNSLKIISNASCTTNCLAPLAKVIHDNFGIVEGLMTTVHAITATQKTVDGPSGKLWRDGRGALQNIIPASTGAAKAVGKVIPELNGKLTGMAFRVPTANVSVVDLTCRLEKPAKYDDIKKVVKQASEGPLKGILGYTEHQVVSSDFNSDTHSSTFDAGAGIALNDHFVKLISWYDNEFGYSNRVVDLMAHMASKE

[24] = target: Heat shock cognate 71 kDa protein (Homo sapiens, UniProt P11142); test: In Vitro Hsc70 Dose Response Fluorescence Polarization Assay. [Related pubchem assays: 1072 ]
Chain of Heat shock cognate 71 kDa protein (P11142 whole entry): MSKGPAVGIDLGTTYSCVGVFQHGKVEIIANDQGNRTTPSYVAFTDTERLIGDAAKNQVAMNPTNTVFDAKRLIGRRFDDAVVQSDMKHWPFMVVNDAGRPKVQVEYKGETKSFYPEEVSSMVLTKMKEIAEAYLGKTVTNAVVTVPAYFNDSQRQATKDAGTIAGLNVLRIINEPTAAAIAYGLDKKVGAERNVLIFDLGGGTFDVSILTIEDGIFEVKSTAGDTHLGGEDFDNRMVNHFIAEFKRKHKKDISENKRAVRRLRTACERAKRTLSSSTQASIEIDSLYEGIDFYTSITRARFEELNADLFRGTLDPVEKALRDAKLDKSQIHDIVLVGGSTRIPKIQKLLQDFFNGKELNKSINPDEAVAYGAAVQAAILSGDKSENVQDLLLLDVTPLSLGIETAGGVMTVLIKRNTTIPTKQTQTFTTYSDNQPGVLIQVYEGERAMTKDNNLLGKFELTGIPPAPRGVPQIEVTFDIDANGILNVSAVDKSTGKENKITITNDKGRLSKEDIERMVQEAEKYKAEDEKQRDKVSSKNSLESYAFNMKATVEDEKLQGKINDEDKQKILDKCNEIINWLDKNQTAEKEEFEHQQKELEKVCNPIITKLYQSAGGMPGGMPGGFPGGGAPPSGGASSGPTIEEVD

[25] = target: Heat shock 70 kDa protein 1A (Homo sapiens, UniProt P0DMV8); test: Hsp70 inhibitors, SAR follow-up, biochemical, fluorescence polarization (AID 1072)
Chain of Heat shock 70 kDa protein 1A (P0DMV8 whole entry): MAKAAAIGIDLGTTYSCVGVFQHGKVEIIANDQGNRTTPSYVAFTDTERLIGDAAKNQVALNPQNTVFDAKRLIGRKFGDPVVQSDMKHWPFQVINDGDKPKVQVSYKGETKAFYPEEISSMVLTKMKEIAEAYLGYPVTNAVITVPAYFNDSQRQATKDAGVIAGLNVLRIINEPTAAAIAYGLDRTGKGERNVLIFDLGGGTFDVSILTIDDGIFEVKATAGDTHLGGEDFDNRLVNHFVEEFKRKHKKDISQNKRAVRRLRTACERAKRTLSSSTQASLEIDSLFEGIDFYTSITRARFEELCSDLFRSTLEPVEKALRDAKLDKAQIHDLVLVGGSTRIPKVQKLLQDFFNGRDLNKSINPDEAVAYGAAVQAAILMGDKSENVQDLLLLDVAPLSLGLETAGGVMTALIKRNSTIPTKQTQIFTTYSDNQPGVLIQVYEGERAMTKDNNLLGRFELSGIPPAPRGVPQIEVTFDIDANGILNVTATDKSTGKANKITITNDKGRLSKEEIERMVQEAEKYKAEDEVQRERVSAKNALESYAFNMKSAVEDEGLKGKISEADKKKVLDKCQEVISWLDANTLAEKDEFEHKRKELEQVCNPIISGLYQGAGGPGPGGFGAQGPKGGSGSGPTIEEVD

[26] = target: T4, Dual specificity protein phosphatase 6 (Rattus norvegicus, UniProt Q64346)
T4 sequence (Q64346 whole entry): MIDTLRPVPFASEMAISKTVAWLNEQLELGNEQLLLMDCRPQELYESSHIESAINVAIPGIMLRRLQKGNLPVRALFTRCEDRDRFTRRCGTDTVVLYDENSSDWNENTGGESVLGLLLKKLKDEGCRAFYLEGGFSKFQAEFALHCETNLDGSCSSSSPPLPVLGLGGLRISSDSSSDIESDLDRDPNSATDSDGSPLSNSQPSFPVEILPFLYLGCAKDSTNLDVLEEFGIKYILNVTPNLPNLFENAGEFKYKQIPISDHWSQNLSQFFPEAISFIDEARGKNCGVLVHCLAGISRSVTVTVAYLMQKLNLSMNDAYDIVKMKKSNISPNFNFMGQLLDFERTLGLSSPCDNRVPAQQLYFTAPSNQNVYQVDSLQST

[27] = target: T4, Dual specificity protein phosphatase 6; type: functional
[28] = target: Trypsin (Sus scrofa, UniProt P00761); test: porcine trypsin inhibitors, dose response, selectivity assay for Rce1 protease inhibitor project, biochemical, quenched peptide fluorescence, cherry-pick (AID 488789)
Chain of Trypsin (P00761 whole entry): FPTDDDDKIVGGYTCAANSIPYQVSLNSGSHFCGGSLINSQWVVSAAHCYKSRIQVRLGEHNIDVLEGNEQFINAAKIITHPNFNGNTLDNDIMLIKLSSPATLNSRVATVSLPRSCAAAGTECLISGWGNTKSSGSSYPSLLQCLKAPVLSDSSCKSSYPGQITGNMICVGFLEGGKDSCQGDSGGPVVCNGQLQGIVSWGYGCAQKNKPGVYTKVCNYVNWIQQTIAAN

[29] = target: CAAX prenyl protease 1 (Saccharomyces cerevisiae S288c, UniProt P47154); test: Ste24 protease inhibitors, dose response, biochemical, S. cerevisiae, plate reader, cherry-pick (AID 488815)
Chain of CAAX prenyl protease 1 (P47154 whole entry): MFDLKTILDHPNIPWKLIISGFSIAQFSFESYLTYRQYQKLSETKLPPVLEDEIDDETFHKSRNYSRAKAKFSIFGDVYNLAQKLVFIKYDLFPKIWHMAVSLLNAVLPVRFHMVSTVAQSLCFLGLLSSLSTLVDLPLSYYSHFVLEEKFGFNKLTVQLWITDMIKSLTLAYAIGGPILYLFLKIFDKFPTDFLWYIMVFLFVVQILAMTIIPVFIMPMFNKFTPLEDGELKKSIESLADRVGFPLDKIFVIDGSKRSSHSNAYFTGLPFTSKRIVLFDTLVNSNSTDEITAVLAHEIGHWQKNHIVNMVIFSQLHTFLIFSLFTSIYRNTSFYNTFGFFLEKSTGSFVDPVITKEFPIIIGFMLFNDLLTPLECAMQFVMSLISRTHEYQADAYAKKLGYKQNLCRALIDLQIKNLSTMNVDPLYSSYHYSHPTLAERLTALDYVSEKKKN

[30] = target: T5, Histone-lysine N-methyltransferase NSD2 (Homo sapiens, UniProt O96028); type: biochemical
T5 sequence (O96028 whole entry): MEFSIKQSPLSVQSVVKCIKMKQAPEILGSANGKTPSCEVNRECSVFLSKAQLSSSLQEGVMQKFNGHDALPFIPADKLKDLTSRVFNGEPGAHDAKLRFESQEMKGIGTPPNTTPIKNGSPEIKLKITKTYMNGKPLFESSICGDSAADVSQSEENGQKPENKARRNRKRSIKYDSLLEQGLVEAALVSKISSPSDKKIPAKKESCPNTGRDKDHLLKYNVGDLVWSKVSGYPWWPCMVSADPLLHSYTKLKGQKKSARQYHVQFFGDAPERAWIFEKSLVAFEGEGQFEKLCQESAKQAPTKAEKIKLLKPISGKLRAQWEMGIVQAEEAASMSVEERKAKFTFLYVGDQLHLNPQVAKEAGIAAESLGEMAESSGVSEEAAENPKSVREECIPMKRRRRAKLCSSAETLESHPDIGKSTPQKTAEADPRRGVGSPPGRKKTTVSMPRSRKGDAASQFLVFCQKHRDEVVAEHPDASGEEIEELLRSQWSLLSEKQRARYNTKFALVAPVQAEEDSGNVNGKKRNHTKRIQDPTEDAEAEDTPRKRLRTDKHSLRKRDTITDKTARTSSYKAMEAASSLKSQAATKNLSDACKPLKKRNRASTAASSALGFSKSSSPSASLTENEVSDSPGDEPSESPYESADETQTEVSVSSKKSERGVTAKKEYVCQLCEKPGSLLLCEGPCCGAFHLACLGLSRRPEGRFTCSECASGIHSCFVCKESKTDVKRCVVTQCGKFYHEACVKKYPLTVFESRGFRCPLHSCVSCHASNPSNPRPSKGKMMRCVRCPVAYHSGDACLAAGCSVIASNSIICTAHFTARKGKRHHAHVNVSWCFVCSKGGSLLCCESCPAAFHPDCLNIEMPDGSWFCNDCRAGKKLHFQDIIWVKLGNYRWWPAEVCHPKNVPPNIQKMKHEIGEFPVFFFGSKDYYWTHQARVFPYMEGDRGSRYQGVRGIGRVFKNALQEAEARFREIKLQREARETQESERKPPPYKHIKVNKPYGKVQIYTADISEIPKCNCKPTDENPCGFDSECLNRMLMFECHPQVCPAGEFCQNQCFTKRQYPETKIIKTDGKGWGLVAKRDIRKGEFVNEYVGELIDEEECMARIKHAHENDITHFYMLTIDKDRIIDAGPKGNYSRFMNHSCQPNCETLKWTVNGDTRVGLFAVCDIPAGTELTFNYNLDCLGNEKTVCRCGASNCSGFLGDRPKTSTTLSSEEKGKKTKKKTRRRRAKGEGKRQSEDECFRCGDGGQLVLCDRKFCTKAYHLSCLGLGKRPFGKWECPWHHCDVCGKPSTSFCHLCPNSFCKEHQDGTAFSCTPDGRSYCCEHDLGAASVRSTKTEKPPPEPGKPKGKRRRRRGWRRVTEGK

[31] = target: T6, Mannose-6-phosphate isomerase (Homo sapiens, UniProt P34949); test: PMI enzyme inhibitors, confirmation, biochemical, fluorescence intensity (AID 1535)
T6 sequence (P34949 whole entry): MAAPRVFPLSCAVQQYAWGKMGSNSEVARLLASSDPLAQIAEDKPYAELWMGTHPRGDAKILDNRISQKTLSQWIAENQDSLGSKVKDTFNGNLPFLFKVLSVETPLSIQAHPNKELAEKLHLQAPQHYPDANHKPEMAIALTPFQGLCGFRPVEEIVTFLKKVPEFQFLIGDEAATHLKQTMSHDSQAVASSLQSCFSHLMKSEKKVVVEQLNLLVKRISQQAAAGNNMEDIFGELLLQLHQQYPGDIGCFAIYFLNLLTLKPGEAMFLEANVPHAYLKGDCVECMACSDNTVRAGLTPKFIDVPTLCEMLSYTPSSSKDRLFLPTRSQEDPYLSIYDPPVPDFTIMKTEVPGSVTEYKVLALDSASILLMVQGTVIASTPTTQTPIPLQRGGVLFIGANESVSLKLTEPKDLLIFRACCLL

[32] = target: Phosphomannomutase 2 (Homo sapiens, UniProt O15305); test: Counter screen SAR assay for PMM2 inhibitors via a fluorescence intensity assay. [Related pubchem assays (depositor defined):AID1545, AID1574]
Chain of Phosphomannomutase 2 (O15305 whole entry): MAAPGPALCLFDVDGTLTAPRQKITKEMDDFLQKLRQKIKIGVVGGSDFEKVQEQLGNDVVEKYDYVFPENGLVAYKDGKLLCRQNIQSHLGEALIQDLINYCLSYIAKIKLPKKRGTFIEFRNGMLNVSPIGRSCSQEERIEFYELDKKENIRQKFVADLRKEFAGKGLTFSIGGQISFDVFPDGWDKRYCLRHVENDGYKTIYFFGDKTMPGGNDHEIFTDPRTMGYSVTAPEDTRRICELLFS

[33] = target: Phosphoethanolamine/phosphocholine phosphatase (Homo sapiens, UniProt Q8TCT1); test: SAR assay for compounds that inhibit PHOSPHO1. [Related pubchem assays (depositor defined):AID1545, AID1565, AID1574]
Chain of Phosphoethanolamine/phosphocholine phosphatase (Q8TCT1 whole entry): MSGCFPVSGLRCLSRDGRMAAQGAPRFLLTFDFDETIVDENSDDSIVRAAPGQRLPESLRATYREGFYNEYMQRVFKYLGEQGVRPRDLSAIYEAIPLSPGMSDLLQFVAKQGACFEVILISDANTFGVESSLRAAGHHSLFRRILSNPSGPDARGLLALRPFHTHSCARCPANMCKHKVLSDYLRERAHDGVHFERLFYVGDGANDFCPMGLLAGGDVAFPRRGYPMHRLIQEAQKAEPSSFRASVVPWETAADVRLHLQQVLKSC

COc1cccc2sc(Nc3nnc(-c4cccs4)o3)nc12
EC50 [1]: 0.415 µM (active) | CC50 [2]: 27.8 µM (active) | EC50 [3]: 2.96 µM (active) | CC50 [4]: 11.2 µM (active) | CC50 [5]: > 20 µM (active) | CC50 [6]: 11.1 µM (active) | IC50 [7]: 15.6 µM (active)

Cc1ccccc1-c1nc(-c2ccccn2)no1
AC50 [8]: 4.18 µM (active) | AC50 [9]: 14.8 µM (active) | AC50 [10]: 12.9 µM (active) | AC50 [11]: 23 µM (active) | AC50 [12]: 1.81 µM (active) | AC50 [13]: 1.8 µM (active) | AC50 [14]: 17.1 µM (active)

Cc1ccc(NC(=O)NCc2ccccn2)cc1Cl
EC50 [15]: > 150 µM (not active) | EC50 [16]: > 150 µM (not active) | EC50 [17]: > 150 µM (not active) | AC50 [18]: 343 µM (active)

CCSc1nc(O)c2c3c(sc2n1)COC(C)(CC)C3 (stereo not drawn)
AC50 [19]: 2.82 µM (inconclusive) | AC50 [20]: inconclusive | AC50 [21]: inconclusive

CCOc1cc2c(c([N+](=O)[O-])c1)NC(C(=O)O)C1CC=CC21 (stereo not drawn)
IC50 [22]: > 100 µM (not active) | IC50 [23]: > 100 µM (not active) | IC50 [24]: > 100 µM (not active) | IC50 [25]: > 100 µM (not active) | IC50 [26]: > 100 µM (inactive) | IC50 [27]: > 100 µM (inactive)

CCN(CC)CCCNc1cc(C)nc2cc(-c3cccs3)nn12
AC50 [28]: 19.4 µM (active) | AC50 [29]: 6.24 µM (active) | AC50 [30]: > 20 µM (inactive)

O=c1c2c(OCC(F)(F)F)cc([N+](=O)[O-])cc2sn1-c1ccc(F)cc1
IC50 [31]: 26.1 µM (active) | IC50 [32]: > 100 µM (inactive) | IC50 [33]: 0.577 µM (active)
